From patent US20250302832A1, “PYRAZINE DERIVATIVES AND USES THEREOF” (FOGHORN THERAPEUTICS INC., priority 2022, published 2025)

Legend:
[1] = target: T1, HiBit-BRM fusion protein (Homo sapiens, UniProt P51531); assay: HiBiT-BRM cell-based degradation assay (Nano-Glo HiBiT lytic detection, 24 h); settings: HeLa cell line expressing HiBiT-BRM; for DC50: read-out: BRM HiBit Degradation IC50
T1 construct: expressed in transfected cells
Procedure, shortened: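 Stable HeLa HiBiT-BRM cells treated 24 h with compounds (10-point 3-fold dilutions, 30 μM final top dose, duplicate). HiBiT levels read by Nano-Glo lytic luminescence; % degradation normalised to DMSO (high control) and 2 μM reference BRM/BRG1 degrader (low control).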

[2] = target: T2, HiBit-BRG1 fusion protein (Homo sapiens, UniProt P51532); assay: HiBiT-BRG1 cell-based degradation assay (Nano-Glo HiBiT lytic detection, 24 h); settings: HeLa cell line expressing HiBit-BRG1 and LgBit; for Dmax: read-out: BRG1 HiBit Degradation Maximum (%); for DC50: read-out: BRMG1 HiBit Degradation IC50
T2 construct: expressed in transfected cells
T2 sequence (P51532 whole entry, the tested form may be a part): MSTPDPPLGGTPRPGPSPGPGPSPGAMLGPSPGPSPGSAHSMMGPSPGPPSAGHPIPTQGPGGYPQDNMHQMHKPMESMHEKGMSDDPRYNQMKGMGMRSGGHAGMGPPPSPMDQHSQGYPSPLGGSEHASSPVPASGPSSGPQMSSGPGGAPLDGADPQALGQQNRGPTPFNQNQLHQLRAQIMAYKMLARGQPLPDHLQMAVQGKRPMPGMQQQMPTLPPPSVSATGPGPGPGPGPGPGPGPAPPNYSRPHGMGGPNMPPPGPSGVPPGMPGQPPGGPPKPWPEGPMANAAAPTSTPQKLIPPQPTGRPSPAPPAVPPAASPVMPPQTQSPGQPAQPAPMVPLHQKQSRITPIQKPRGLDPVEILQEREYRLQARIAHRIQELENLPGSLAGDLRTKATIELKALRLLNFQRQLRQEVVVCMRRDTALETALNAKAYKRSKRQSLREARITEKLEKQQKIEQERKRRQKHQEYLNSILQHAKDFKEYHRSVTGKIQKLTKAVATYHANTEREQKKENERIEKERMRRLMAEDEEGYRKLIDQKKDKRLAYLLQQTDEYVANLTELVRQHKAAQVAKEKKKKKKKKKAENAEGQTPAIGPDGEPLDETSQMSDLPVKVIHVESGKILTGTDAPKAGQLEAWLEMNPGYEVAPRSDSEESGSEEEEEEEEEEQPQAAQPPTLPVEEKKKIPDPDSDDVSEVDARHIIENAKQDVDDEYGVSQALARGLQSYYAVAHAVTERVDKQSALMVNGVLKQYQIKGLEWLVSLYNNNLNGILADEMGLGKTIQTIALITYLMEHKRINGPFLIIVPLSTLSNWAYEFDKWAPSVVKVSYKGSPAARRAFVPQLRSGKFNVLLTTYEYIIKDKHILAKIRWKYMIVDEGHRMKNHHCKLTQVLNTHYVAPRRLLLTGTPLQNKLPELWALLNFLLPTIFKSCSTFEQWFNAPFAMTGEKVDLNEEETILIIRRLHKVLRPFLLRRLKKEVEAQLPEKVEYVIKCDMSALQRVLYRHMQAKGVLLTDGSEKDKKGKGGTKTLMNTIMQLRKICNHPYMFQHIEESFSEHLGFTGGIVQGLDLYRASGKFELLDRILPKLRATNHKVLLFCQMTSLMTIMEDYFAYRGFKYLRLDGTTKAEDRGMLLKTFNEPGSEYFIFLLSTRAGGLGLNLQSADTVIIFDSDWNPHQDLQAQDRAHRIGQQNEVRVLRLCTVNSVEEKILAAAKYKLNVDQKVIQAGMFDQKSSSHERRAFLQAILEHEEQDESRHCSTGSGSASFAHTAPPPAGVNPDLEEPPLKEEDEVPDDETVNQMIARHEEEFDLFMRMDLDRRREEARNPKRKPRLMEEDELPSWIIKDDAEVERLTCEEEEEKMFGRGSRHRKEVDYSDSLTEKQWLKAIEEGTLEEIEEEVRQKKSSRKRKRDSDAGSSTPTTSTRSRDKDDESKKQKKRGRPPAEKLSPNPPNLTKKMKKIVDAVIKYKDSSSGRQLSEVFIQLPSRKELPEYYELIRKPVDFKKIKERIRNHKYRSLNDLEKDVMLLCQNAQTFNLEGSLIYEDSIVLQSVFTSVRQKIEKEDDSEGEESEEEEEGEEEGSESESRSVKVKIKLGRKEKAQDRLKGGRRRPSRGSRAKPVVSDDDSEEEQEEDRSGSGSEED
Procedure, shortened: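 HeLa cells stably expressing HiBiT-BRG1 and LgBiT, 5000 per well, compound-treated 24 h, equilibrated 15 min at room temperature, then lysed with LgBiT-containing Nano-Glo HiBiT lytic reagent and luminescence read. % degradation normalised between DMSO (high control) and 2 μM reference BRM/BRG1 degrader (low control).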

T1 sequence (P51531 whole entry, the tested form may be a part): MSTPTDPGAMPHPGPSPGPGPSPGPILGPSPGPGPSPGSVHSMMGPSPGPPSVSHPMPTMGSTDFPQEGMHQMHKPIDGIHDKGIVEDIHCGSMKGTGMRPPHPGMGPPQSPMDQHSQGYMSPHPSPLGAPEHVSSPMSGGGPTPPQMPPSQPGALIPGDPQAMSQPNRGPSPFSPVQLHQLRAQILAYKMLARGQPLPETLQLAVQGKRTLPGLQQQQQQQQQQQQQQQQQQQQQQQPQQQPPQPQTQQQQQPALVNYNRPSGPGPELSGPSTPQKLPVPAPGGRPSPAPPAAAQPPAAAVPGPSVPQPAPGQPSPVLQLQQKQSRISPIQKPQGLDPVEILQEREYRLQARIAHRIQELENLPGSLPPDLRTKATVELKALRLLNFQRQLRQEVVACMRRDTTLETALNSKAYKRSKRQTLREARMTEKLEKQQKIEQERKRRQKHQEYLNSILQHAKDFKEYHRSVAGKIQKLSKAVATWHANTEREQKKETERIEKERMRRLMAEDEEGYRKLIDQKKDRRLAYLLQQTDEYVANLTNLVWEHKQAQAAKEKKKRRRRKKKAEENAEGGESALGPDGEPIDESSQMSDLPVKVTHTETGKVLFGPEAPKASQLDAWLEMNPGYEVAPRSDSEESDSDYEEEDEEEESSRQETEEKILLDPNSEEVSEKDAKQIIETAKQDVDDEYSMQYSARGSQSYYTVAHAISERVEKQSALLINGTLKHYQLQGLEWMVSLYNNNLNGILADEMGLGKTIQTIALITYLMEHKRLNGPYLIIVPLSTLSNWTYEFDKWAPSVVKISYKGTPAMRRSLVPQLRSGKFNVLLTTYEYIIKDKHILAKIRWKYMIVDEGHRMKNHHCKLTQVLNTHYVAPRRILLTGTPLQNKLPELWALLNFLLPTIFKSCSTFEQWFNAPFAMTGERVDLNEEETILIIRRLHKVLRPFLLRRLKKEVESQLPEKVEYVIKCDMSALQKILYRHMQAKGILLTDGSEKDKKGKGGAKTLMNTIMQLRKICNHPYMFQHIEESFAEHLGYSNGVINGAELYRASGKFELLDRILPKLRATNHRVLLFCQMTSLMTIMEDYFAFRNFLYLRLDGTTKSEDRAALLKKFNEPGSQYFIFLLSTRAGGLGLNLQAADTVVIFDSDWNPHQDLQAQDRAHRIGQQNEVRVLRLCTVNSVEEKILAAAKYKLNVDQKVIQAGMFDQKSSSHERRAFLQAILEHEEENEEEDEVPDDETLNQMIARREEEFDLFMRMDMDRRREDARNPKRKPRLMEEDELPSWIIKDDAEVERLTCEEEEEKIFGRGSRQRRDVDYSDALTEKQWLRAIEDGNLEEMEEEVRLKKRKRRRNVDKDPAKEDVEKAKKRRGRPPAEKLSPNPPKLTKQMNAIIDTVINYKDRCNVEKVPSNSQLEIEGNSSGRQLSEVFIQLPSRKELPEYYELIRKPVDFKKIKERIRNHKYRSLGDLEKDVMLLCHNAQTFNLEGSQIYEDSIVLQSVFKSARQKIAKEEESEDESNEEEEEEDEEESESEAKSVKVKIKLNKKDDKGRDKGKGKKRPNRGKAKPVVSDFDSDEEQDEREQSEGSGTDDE

Row | Compound | DC50 [1] [nM] | Dmax [2] [%] | DC50 [2] [nM] | BRM HiBit Degradation Maximum (%) [1]
1 | Cc1ncsc1-c1ccc([C@H](C)NC(=O)[C@@H]2C[C@@H](O)CN2C(=O)[C@@H](c2cc(N3CC4(CC(c5cc6nnc(-c7ccccc7O)cc6n5C5(C)CC5)C4)C3)no2)C(C)C)cc1 [Compound 66, (2S,4R)-4-hydroxy-1-((R)-2-(3-(6-(3-(2-hydroxyphenyl)-5-(1-methylcyclopropyl)-5H-pyrrolo[3,2-c]pyridazin-6-yl)-2-azaspiro[3.3]heptan-2-yl)isoxazol-5-yl)-3-methylbutanoyl)-N-((S)-1-(4-(4-methylthiazol-5-yl)phenyl)ethyl)pyrrolidine-2-carboxamide] | < 10 | > 50 | > 10 | A (“A” indicates maximum degradation ≥75%)
2 | Cc1ncsc1-c1ccc([C@H](C)NC(=O)[C@@H]2C[C@@H](O)CN2C(=O)[C@@H](c2cc(N3CC4(CC(c5cc6nnc(-c7ccccc7O)cc6n5C)C4)C3)no2)C(C)C)cc1 [Compound 67, (2S,4R)-4-hydroxy-1-((R)-2-(3-(6-(3-(2-hydroxyphenyl)-5-methyl-5H-pyrrolo[3,2-c]pyridazin-6-yl)-2-azaspiro[3.3]heptan-2-yl)isoxazol-5-yl)-3-methylbutanoyl)-N-((S)-1-(4-(4-methylthiazol-5-yl)phenyl)ethyl)pyrrolidine-2-carboxamide] | < 10 | > 50 | > 10 | A (“A” indicates maximum degradation ≥75%)
3 | Cc1ncsc1-c1ccc([C@H](C)NC(=O)[C@@H]2C[C@@H](O)CN2C(=O)[C@@H](c2cc(N3CC4(CC(c5cc6nnc(-c7ccccc7O)cc6n5C5(CF)CC5)C4)C3)no2)C(C)C)cc1 [Compound 68, (2S,4R)-1-((R)-2-(3-(6-(5-(1-(fluoromethyl)cyclopropyl)-3-(2-hydroxyphenyl)-5H-pyrrolo[3,2-c]pyridazin-6-yl)-2-azaspiro[3.3]heptan-2-yl)isoxazol-5-yl)-3-methylbutanoyl)-4-hydroxy-N-((S)-1-(4-(4-methylthiazol-5-yl)phenyl)ethyl)pyrrolidine-2-carboxamide] | < 10 | < 50 |  | A (“A” indicates maximum degradation ≥75%)

More lines, main results first:

Row | DC50 [1] [nM] | Dmax [2] [%] | DC50 [2] [nM] | Compound | BRM HiBit Degradation Maximum (%) [1]
4 | < 10 | < 50 |  | Cc1ncsc1-c1ccc([C@H](C)NC(=O)[C@@H]2C[C@@H](O)CN2C(=O)[C@@H](c2cc(-c3cnc(N4CC[C@@H](c5cc6nnc(-c7cccc(Cl)c7O)cc6n5C5CC5)C4)nc3)no2)C(C)C)cc1 [Compound 69, (2S,4R)-1-((R)-2-(3-(2-((R)-3-(3-(3-chloro-2-hydroxyphenyl)-5-cyclopropyl-5H-pyrrolo[3,2-c]pyridazin-6-yl)pyrrolidin-1-yl)pyrimidin-5-yl)isoxazol-5-yl)-3-methylbutanoyl)-4-hydroxy-N-((S)-1-(4-(4-methylthiazol-5-yl)phenyl)ethyl)pyrrolidine-2-carboxamide] | A (“A” indicates maximum degradation ≥75%)
5 | < 10 | < 50 |  | Cc1ncsc1-c1ccc([C@H](C)NC(=O)[C@@H]2C[C@@H](O)CN2C(=O)[C@@H](c2cc(-c3cnc(N4CC[C@@H](c5cc6nnc(-c7cc(F)cc(Cl)c7O)cc6n5C5CC5)C4)nc3)no2)C(C)C)cc1 [Compound 70, (2S,4R)-1-((R)-2-(3-(2-((R)-3-(3-(3-chloro-5-fluoro-2-hydroxyphenyl)-5-cyclopropyl-5H-pyrrolo[3,2-c]pyridazin-6-yl)pyrrolidin-1-yl)pyrimidin-5-yl)isoxazol-5-yl)-3-methylbutanoyl)-4-hydroxy-N-((S)-1-(4-(4-methylthiazol-5-yl)phenyl)ethyl)pyrrolidine-2-carboxamide] | A (“A” indicates maximum degradation ≥75%)
